Consider 19 molecules from US11873298B2, “Compounds and uses thereof” (JANSSEN PHARMACEUTICA NV, priority 2017, dated 2024).

Bounds are passed on as bounds.

The subject of assay [1] is yeast strains expressing the human ApoE4. The assay is described as follows: Yeast ApoE4 toxicity rescue assay (OD600 growth). The following applies: 24 h; for EC50: read-out: ApoE4 EC50; for Emax: read-out: ApoE4 Emax.
The test system of assay [2] is yeast strains expressing the human α-synuclein. Description: Yeast α-synuclein toxicity rescue assay (OD600 growth). The settings on record: 40 h; for Emax: read-out: α-Syn Emax; for EC50: read-out: α-Syn EC50.
In the next assay the target is T1, Ole1 (Saccharomyces cerevisiae, UniProt P21147).
T1 construct: expressed in transfected cells; host or cells: S. cerevisiae ole1Δ strain (W303 pdr1Δ pdr3Δ background), plasmid pRS316 with TDH3 promoter and CYC1 terminator
T1 sequence (P21147 1-510): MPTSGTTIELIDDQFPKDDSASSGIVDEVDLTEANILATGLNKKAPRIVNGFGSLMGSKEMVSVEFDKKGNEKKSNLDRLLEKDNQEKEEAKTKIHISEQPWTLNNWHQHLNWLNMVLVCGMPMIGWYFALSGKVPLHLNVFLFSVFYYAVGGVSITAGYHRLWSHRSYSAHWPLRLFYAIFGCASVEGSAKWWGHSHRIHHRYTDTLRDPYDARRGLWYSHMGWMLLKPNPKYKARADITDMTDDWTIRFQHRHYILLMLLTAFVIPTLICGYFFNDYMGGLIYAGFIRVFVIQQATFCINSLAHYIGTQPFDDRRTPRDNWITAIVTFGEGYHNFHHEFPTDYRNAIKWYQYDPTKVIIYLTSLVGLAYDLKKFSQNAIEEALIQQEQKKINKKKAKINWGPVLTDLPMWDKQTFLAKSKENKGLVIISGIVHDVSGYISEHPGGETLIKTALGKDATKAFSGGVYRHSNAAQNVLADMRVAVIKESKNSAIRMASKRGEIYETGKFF
Description: Growth inhibition of yeast strain expressing Ole1 as sole desaturase. The assay is classed as cell-based. The following applies: yeast strain expressing Ole1 as sole desaturase. In outline: (§1)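 ole1Δ yeast (W303 pdr1Δ pdr3Δ background) carrying plasmid-borne Ole1, SCD1 or SCD5, grown in uracil-free media; cultures pre-grown in raffinose, seeded at 2× density 0.02 in galactose media with compound. Growth read as OD600 after 24 h at 30° C. for Ole1, 40 h for SCD1/SCD5.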

For another assay, the target named is T2, SCD1 (Homo sapiens, UniProt O00767).
T2 construct: host or cells: S. cerevisiae ole1Δ strain (W303 pdr1Δ pdr3Δ background), plasmid pRS316 with TDH3 promoter and CYC1 terminator
T2 sequence (O00767 1-359): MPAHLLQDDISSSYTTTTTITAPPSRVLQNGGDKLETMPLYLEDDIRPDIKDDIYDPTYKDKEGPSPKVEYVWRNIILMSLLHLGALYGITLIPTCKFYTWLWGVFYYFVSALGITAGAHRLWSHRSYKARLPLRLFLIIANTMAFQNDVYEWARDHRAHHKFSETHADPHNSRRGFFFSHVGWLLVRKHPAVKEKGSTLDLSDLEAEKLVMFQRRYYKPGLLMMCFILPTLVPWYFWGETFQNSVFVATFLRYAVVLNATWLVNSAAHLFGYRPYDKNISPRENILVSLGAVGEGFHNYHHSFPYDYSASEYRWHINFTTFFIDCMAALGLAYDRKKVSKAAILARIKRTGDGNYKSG
Description: Growth inhibition of humanized yeast strain expressing SCD1 as sole desaturase. The assay is classed as cell-based. The settings on record: humanized yeast strain expressing SCD1. The gist of the method: as §1

A further assay addresses T3, SCD5 (Homo sapiens, UniProt Q86SK9).
T3 construct: host or cells: S. cerevisiae ole1Δ strain (W303 pdr1Δ pdr3Δ background), plasmid pRS316 with TDH3 promoter and CYC1 terminator
T3 sequence (Q86SK9 1-330): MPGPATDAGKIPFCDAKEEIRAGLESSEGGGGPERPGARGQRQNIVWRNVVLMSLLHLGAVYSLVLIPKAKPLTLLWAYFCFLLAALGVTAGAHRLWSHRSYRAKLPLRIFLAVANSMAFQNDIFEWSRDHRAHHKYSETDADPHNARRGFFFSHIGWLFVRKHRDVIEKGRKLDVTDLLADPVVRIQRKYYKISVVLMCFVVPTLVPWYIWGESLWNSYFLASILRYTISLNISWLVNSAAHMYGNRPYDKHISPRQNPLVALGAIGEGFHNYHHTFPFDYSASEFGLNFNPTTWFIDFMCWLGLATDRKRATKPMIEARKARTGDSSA
Description: Growth inhibition of humanized yeast strain expressing SCD5 as sole desaturase. In kind it is cell-based. The following applies: humanized yeast strain expressing SCD5. In outline:
as §1

One may read the EC50 as the concentration giving half of the maximal effect. For `O=C(NC1CC1c1ccccc1)N1CCC(c2nc(-c3ccc4ccccc4n3)no2)CC1` (stereo not drawn) [compound 82], in assay [1], the concentration giving a half-maximal response (EC50) amounted to 16.8 µM and the Emax amounted to 40%.
Turning to `COc1ccc(-c2noc(C3CCN(C(=O)COc4cc(O)c5c(c4)OC(C)(C)CC5=O)CC3)n2)cc1OC` [compound 77], the Emax in assay [1] was found to be 436%; in assay [2], 345%.
One may read the IC50 as the concentration at which inhibition is half-maximal. Regarding `CCOc1cnc(-c2noc(C3CCN(C(=O)CNC(=O)c4ccccc4)CC3)n2)cc1OC` [Compound 121], at Ole1, the IC50 is above 45 µM and the “OLE1 % Max Inhibition” value is 111.12%. Also, on SCD1, the IC50 is above 45 µM and the “SCD1 % Max Inhibition” value stood at 94.06%. Further, on SCD5, the IC50 is above 45 µM and the “SCD5 % Max Inhibition” value worked out at 98.38%. Besides, in assay [2], the EC50 is 15.5 µM and the Emax amounted to 388%.
Consider `CCOc1ccc(-c2noc(C3CCN(C(=O)C4CC(=O)N(c5ccccc5)C4)CC3)n2)cc1OC` (stereo not drawn) [compound 84], for which, in assay [1], the EC50 came out at 0.956 µM and the Emax is 866%. Moreover, in assay [2], the EC50 stood at 0.06 µM and the Emax stood at 463%.
As to `O=C(NCC(=O)N1CCC(c2nc(-c3ccc4c(c3)OC(F)(F)O4)no2)CC1)c1ccccc1` [Compound 109], on Ole1, the IC50 is above 45 µM and the “OLE1 % Max Inhibition” value stood at 87.87%. At SCD1, the IC50 was above 45 µM and the “SCD1 % Max Inhibition” value turned out to be 84.36%. Moreover, at SCD5, the IC50 was above 45 µM and the “SCD5 % Max Inhibition” value came out at 89.75%. Besides, in assay [2], the EC50 is 3.04 µM and the Emax was 35%.
Take `CCOc1ncc(-c2noc(C3CCN(C(=O)CN4Cc5ccccc5C4=O)CC3)n2)cc1OC` [Compound 131]: on Ole1, the IC50 was 25.8 µM and the “OLE1 % Max Inhibition” value was determined as 39.81%. In addition, at SCD1, the IC50 was above 45 µM and the “SCD1 % Max Inhibition” value stood at 96.48%. In addition, at SCD5, the IC50 is above 45 µM and the “SCD5 % Max Inhibition” value is 98.92%. For the same molecule, in assay [2], the EC50 stood at 0.167 µM and the Emax stood at 352%.
As for `Cn1ncc2ccc(-c3noc(C4CCN(C(=O)CNC(=O)c5ccccc5)CC4)n3)cc21` [compound 94], the IC50 on Ole1 was above 45 µM; against SCD1, above 45 µM; at SCD5 it was 39.3 µM. Besides, the EC50 in assay [2] was found to be 0.04 µM.
Regarding `CCOc1ccc(-c2noc(C3CCN(C(=O)[C@H]4CC[C@H](c5ccccc5)N4)CC3)n2)cc1OC` [Compound 119], at Ole1, the concentration for half-maximal inhibition (IC50) is above 45 µM and the “OLE1 % Max Inhibition” value turned out to be 111.86%. Moreover, at SCD1, the IC50 is above 45 µM and the “SCD1 % Max Inhibition” value came to 86.22%. Also, on SCD5, the IC50 was above 45 µM and the “SCD5 % Max Inhibition” value was 93.93%. Further, in assay [2], the EC50 was determined as 20.9 µM and the Emax is 61%.
Turning to `COc1ccccc1-c1noc(C2CCN(C(=O)CNC(=O)c3ccc(C)c(C)c3)CC2)n1` [Compound 58], at Ole1, the IC50 was above 45 µM and the “OLE1 % Max Inhibition” value was 92.35%. Besides, at SCD1, the IC50 was above 45 µM and the “SCD1 % Max Inhibition” value was determined as 101.47%. Further, on SCD5, the IC50 was above 45 µM and the “SCD5 % Max Inhibition” value is reported as 66.93%. Also, in assay [2], the EC50 amounted to 7.94 µM and the Emax amounted to 23%.
Consider `CCOc1ccc(-c2noc(C3CCN(C(=O)CN4Cc5ccccc5C4=O)CC3)n2)cc1OC` [Compound 106], for which, at Ole1, the IC50 was above 45 µM and the “OLE1 % Max Inhibition” value was found to be 35.35%. Further, on SCD1, the IC50 is above 45 µM and the “SCD1 % Max Inhibition” value was determined as 78.19%. For the same molecule, on SCD5, the IC50 is above 45 µM and the “SCD5 % Max Inhibition” value came out at 71.22%. Moreover, in assay [2], the EC50 was found to be 0.1 µM and the Emax is 415%.
As for `O=C(NCC(=O)N1CCC(c2nc(-c3ccc4cn[nH]c4c3)no2)CC1)c1ccccc1` [compound 88], the IC50 was above 45 µM at Ole1, 33.5 µM against SCD1 and above 45 µM at SCD5. The EC50 in assay [2] worked out at 9.04 µM. Also, the Emax in assay [2] was determined as 130%.
On to `CCOc1ncc(-c2noc(C3CCN(C(=O)CNC(=O)c4ccccc4)CC3)n2)cc1OC` [Compound 132], for which, at Ole1, the IC50 is above 45 µM and the “OLE1 % Max Inhibition” value turned out to be 7.45%. In addition, on SCD1, the IC50 is above 45 µM and the “SCD1 % Max Inhibition” value stood at 115.10%. At SCD5, the IC50 was above 45 µM and the “SCD5 % Max Inhibition” value was found to be 94.34%. In assay [2], the EC50 stood at 1.01 µM and the Emax came out at 253%.
Consider `COc1ccc(C(=O)NCC(=O)N2CCC(c3nc(-c4ccc5c(C)nn(C)c5c4)no3)CC2)nc1` [Compound 151], for which, at Ole1, the IC50 was above 45 µM and the “OLE1 % Max Inhibition” value is reported as 2.67%. Further, on SCD1, the IC50 is above 45 µM and the “SCD1 % Max Inhibition” value was determined as 75.63%. Further, on SCD5, the IC50 was above 45 µM and the “SCD5 % Max Inhibition” value was found to be 20.68%. In assay [2], the EC50 amounted to 0.045 µM and the Emax is 405%.
For `Cc1nn(C)c2cc(-c3noc(C4CCN(C(=O)C5CC(=O)N(c6ccc(C#N)cc6)C5)CC4)n3)ccc12` (stereo not drawn) [Compound 139], on Ole1, the concentration for half-maximal inhibition (IC50) was above 45 µM and the “OLE1 % Max Inhibition” value was 25.30%. In addition, on SCD1, the IC50 is above 45 µM and the “SCD1 % Max Inhibition” value is on record as 87.50%. In addition, on SCD5, the half-maximal inhibitory concentration (IC50) was above 45 µM and the “SCD5 % Max Inhibition” value was 75.11%. Also, in assay [2], the EC50 was determined as 0.021 µM and the Emax is 437%.
For `Cc1nn(C)c2cc(-c3noc(C4CCN(C(=O)C(CO)N5Cc6ccccc6C5=O)CC4)n3)ccc12` (stereo not drawn) [Compound 129], on Ole1, the IC50 was above 45 µM and the “OLE1 % Max Inhibition” value is reported as 3.25%. Further, at SCD1, the IC50 is above 45 µM and the “SCD1 % Max Inhibition” value came to 75.60%. For the same molecule, on SCD5, the IC50 was above 45 µM and the “SCD5 % Max Inhibition” value was 93.05%. In assay [2], the EC50 was 0.047 µM and the Emax came out at 360%.
`Cc1nn(C)c2nc(-c3noc(C4CCN(C(=O)CNC(=O)c5ccccc5)CC4)n3)ccc12` [Compound 115]: on Ole1, the half-maximal inhibitory concentration (IC50) is above 45 µM and the “OLE1 % Max Inhibition” value came out at 101.68%. At SCD1, the IC50 is above 45 µM and the “SCD1 % Max Inhibition” value stood at 77.36%. On SCD5, the half-maximal inhibitory concentration (IC50) was above 45 µM and the “SCD5 % Max Inhibition” value came out at 77.85%. Also, in assay [2], the EC50 came to 0.887 µM and the Emax was determined as 326%.
Turning to `Cc1nn(C)c2cc(-c3noc(C4CCN(C(=O)[C@@H]5CC(=O)N(c6ccccc6)C5)CC4)n3)ccc12` [compound 91], the IC50 against Ole1, against SCD1 and at SCD5 was above 45 µM throughout. In addition, in assay [2], the EC50 was determined as 0.107 µM. The Emax in assay [2] was 452%.
Consider `Cn1c(=O)n(C)c2cc(-c3noc(C4CCN(C(=O)CNC(=O)c5ccccc5)CC4)n3)ccc21` [Compound 122], for which, on Ole1, the IC50 was above 45 µM and the “OLE1 % Max Inhibition” value is reported as 109.89%. Further, at SCD1, the IC50 was above 45 µM and the “SCD1 % Max Inhibition” value is recorded as 92.73%. Besides, at SCD5, the IC50 was above 45 µM and the “SCD5 % Max Inhibition” value is listed as 90.04%. For the same molecule, in assay [2], the EC50 turned out to be 0.139 µM and the Emax amounted to 414%.
With `Cc1nn(C)c2cc(-c3noc(C4CCN(C(=O)CNC(=O)c5ccccn5)CC4)n3)ccc12` [Compound 153], on Ole1, the IC50 was above 45 µM and the “OLE1 % Max Inhibition” value was found to be 2.75%. For the same molecule, on SCD1, the IC50 was above 45 µM and the “SCD1 % Max Inhibition” value was 75.76%. Also, on SCD5, the half-maximal inhibitory concentration (IC50) was above 45 µM and the “SCD5 % Max Inhibition” value worked out at 87.51%. For the same molecule, in assay [2], the EC50 was 0.02 µM and the Emax was found to be 271%.
